The results in this text go back to ChEMBL document CHEMBL1124842, “Cyclohexane diester analogues of phorbol ester as potential activators of protein kinase C” (J Med Chem, 1990).

A short description of the assay: Inhibition of [3H]PDBu binding to murine brain PKC (protein kinase C). The arrangement: species or system Mus musculus.

`O=C(OC1CC[C@H](/C=C/CCO)CC1OC(=O)c1ccccc1)c1ccccc1` (some centres undefined) displayed an IC50 of more than 1000 µM.

As for `O=C(OC1CC[C@H](/C=C/CO)CC1OC(=O)c1ccccc1)c1ccccc1` (some centres undefined), the IC50 was more than 1000 µM.

On to `CCCCCCCC(=O)OC[C@H](CO)OC(=O)CCCCCCC`, for which the IC50 stood at 5 µM.

Molecule `CCCCCCCC(=O)OC1CC[C@H](/C=C/CCO)CC1OC(=O)CCCCCCC` (some centres undefined) yielded an IC50 of more than 1000 µM.

In turn, `O=C(OC1CC[C@H](CO)CC1OC(=O)c1ccccc1)c1ccccc1` (some centres undefined) yielded an IC50 of more than 1000 µM.

For `CCCCCCCC(=O)OC1CC[C@H](/C=C/CO)CC1OC(=O)CCCCCCC` (some centres undefined), the IC50 is more than 1000 µM.

The molecule `CCCCCCCC(=O)OC1CC[C@H](CO)CC1OC(=O)CCCCCCC` (stereo in doubt; 20a) yielded an IC50 of more than 1000 µM.

For the molecule `CCCCCCCC(=O)OC1CC[C@H](CO)CC1OC(=O)CCCCCCC` (stereo in doubt; 20b), the IC50 is 1000 µM.

`CCCCCCCCCCCCCC(=O)O[C@@H]1[C@@H](C)[C@@]2(O)[C@@H](C=C(CO)C[C@]3(O)C(=O)C(C)=C[C@@H]23)[C@@H]2C(C)(C)[C@]12OC(C)=O` [PHORBOL MYRISTATE ACETATE] showed an IC50 of 0.01 µM. That is a double-digit nanomolar value.
